According to ChEMBL document CHEMBL1155854, “Conformationally constrained farnesoid X receptor (FXR) agonists: Naphthoic acid-based analogs of GW 4064” (Bioorg Med Chem Lett, 2008):
Active and inactive are the calls of the source. No cut-off for these calls is given here.

Experiments:
[1] = test system: Rattus norvegicus; assay: Reduction of serum aspartate aminotransferase level in alpha-naphthyl-isothiocyanate-induced rat acute cholestasis model at 100 to 300 mg/kg, po bid for 4 days dosed before 2 days induction by alpha-naphthyl-isothiocyanate; type: functional, organism-based
[2] = target: T1, Nuclear receptor ROR-alpha (Homo sapiens, UniProt P35398); assay: Agonist activity at RORalpha assessed as receptor-coactivator peptide interaction by FRET assay; type: functional
T1 sequence (P35398 whole entry): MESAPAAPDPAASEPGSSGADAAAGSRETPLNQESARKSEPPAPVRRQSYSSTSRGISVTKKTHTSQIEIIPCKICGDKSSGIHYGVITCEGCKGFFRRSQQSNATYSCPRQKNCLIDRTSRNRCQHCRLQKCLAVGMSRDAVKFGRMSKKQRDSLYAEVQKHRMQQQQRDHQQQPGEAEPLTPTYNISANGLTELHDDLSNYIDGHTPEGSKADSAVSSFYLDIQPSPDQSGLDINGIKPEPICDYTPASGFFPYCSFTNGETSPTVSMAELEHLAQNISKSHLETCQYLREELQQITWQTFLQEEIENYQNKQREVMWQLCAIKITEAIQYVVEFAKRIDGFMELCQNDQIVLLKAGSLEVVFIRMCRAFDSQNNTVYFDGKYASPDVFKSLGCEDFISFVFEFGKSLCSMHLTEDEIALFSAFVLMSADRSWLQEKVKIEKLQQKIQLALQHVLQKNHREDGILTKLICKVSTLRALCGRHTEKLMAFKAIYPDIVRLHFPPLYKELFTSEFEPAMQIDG

[3] = target: T2, Peroxisome proliferator-activated receptor delta (Homo sapiens, UniProt Q03181); assay: Agonist activity at PPARdelta by transient transfection assay; type: functional
T2 sequence (Q03181 whole entry): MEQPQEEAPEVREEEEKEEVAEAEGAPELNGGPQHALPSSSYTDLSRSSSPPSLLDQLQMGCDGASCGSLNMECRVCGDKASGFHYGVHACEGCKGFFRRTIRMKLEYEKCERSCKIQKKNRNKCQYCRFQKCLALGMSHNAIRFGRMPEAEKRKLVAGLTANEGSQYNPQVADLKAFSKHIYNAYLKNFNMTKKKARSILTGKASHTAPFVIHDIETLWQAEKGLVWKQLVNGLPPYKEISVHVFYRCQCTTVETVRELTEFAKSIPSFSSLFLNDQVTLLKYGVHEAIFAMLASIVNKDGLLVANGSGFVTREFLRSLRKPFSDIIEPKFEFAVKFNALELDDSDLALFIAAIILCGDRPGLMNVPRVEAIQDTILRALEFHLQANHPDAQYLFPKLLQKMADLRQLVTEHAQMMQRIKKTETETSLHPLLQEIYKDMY

[4] = Half life in iv dosed rat; type: ADME, organism-based; conditions: in vivo
[5] = test system: Rattus norvegicus; assay: Reduction of serum bile acids level in alpha-naphthyl-isothiocyanate-induced rat acute cholestasis model at 100 to 300 mg/kg, po bid for 4 days dosed before 2 days induction by alpha-naphthyl-isothiocyanate; type: functional, organism-based
[6] = Oral bioavailability in mouse at 30 mg/kg; type: ADME, organism-based; conditions: in vivo
[7] = target: T3, Peroxisome proliferator-activated receptor alpha (Homo sapiens, UniProt Q07869); assay: Agonist activity at PPARalpha by SPA assay; type: functional
T3 sequence (Q07869 whole entry): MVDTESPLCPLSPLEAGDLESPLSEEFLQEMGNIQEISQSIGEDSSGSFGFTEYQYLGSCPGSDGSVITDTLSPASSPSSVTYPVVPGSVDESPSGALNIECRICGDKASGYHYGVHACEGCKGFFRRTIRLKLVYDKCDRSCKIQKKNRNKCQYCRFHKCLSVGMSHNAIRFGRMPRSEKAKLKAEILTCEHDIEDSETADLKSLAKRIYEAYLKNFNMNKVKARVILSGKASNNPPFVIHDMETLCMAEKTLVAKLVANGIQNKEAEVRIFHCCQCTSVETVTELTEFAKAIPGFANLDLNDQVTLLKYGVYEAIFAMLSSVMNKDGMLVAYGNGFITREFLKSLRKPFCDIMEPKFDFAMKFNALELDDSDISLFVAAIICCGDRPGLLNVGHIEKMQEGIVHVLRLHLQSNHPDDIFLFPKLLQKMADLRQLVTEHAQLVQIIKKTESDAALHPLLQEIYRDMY

[8] = Solubility in simulated gastric fluid at pH 1; type: physicochemical; conditions: simulated gi fluid
[9] = target: T4, Bile acid receptor (Homo sapiens) (UniProt Q96RI1); assay: Agonist activity at FXR assessed as receptor-SRC-1 peptide interaction by FRET assay relative to GW-4064; type: functional
T4 sequence (whole entry): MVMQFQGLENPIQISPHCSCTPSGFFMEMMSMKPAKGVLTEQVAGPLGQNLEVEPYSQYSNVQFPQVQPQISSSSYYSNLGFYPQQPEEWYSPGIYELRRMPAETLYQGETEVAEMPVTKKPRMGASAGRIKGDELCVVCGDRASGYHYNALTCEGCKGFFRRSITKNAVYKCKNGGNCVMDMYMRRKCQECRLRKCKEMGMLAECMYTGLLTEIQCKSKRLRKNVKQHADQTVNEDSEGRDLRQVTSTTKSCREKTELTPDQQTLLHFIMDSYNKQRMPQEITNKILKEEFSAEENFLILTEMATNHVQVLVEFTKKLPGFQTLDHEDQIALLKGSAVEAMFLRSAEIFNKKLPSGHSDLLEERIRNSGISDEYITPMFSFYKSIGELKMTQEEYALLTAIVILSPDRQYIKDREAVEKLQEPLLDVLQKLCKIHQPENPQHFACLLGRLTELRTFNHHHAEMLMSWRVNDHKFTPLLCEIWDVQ

[10] = Volume of distribution at steady state in iv dosed Beagle dog; type: ADME, organism-based, Canis lupus familiaris; conditions: in vivo, read-out: Vdss
[11] = Clearance in iv dosed Beagle dog; type: ADME, organism-based, Canis lupus familiaris; conditions: in vivo
[12] = Clearance in iv dosed mouse; type: ADME, organism-based; conditions: in vivo

XC50 [2]: > 10 µM
XC50 [3]: > 10 µM
half-life [4]: 24 min
bioavailability [6]: 3.9%
XC50 [7]: > 10 µM
solubility [8]: < 1 ng/mL
%max [9]: 134%
Vd [10]: 0.48 L/kg
clearance [11]: 2 mL/min/kg
clearance [12]: 7 mL/min/kg
SMILES: CC(C)c1onc(-c2c(Cl)cccc2Cl)c1COc1ccc(-c2ccc3c(C(=O)O)cccc3c2)cc1
Activity [1]: Active
Activity [5]: Active
